The source of these data is ChEMBL document CHEMBL5316338, “Discovery of Novel PTP1B Inhibitors with Once-Weekly Therapeutic Potential for Type 2 Diabetes: Design, Synthesis, and In Vitro and In Vivo Investigations of BimBH3 Peptide Analogues” (J Med Chem, 2023).

Data set [1] addresses T1, Tyrosine-protein phosphatase non-receptor type 1 (Homo sapiens, UniProt P18031).
T1 sequence (P18031 whole entry): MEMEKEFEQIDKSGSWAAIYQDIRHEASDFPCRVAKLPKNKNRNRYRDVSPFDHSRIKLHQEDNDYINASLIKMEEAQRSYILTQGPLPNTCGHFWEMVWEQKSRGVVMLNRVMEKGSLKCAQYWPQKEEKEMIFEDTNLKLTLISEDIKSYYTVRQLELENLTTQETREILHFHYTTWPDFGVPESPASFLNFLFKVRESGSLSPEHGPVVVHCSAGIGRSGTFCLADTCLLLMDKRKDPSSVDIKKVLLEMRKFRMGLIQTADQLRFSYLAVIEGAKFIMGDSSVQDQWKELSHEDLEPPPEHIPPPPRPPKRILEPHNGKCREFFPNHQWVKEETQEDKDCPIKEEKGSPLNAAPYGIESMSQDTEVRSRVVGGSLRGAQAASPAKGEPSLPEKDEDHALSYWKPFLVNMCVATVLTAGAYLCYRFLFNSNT
Kind of data set: Inhibition of N-terminal His tagged recombinant human PTP1B expressed in Escherichia coli using pNPP as substrate assessed as substrate hydrolysis.

The test system of data set [2] is Pepsin. The data set can be described thus: Stability of compound assessed as Pepsin (unknown origin) mediated compound degradation by measuring half-life by HPLC analysis. As to conditions: human. Format: ADME.
The test system of data set [3] is Mus musculus. The data set can be described thus: Antidiabetic activity against C57BL/Ks db/db mouse assessed as redcution in fasting blood glucose level at 1 umol/kg administered subcutaneously and measured immediately by glucometer analysis (reference value: 19.0 +/- 2.7 […]). Format: functional. The note with it: dose 1 µmol/kg; route sc.
In data set [4] the target is T2, Tyrosine-protein phosphatase non-receptor type 1 (Homo sapiens) (UniProt P18031).
T2 sequence (whole entry): T1 sequence (P18031 whole entry)
The data set can be described thus: Inhibition of N-terminal His tagged recombinant human PTP1B expressed in Escherichia coli using pNPP as substrate assessed as substrate hydrolysis at 40 umol/L relative to control. The note with it: dose 40.0 µmol/L.

The test system of data set [5] is Mus musculus. Kind of data set: Antidiabetic activity against sc dosed C57BL/Ks db/db mouse assessed as reduction in C-peptide level at 1 umol/kg by ELISA analysis. The class given is functional, organism-based. As to conditions: dose 1.0 µmol/kg. (An ELISA detects its analyte on a solid surface through an enzyme-linked reagent.)
For data set [6], the system named is Mus musculus. The data set can be described thus: Antidiabetic activity against C57BL/Ks db/db mouse assessed as redcution in fasting blood glucose level at 1 umol/kg, sc administered once a week and measured on day 24 by glucometer analysis (reference value: 30.2 +/- 3.2 […]). Format: functional. The note with it: dose 1 µmol/kg, time 24 day.
Data set [7] has as its system Mus musculus. Kind of data set: Antidiabetic activity against C57BL/Ks db/db mouse assessed as redcution in fasting blood glucose level at 1 umol/kg, sc administered once a week and measured on day 26 by glucometer analysis (reference value: 31.4 +/- 2.2 […]). Format: functional. As to conditions: dose 1 µmol/kg, time 26 day.
Data set [8] concerns the target Chymotrypsin (Homo sapiens, UniProt Q99895+P17538+P40313+Q6GPI1). Kind of data set: Stability of compound assessed as chymotrypsin (unknown origin) mediated compound degradation by measuring fold change of half-life by RP-HPLC analysis relative to BimBH312-mer peptide. The class given is ADME, protein assay.
For data set [9], the system named is Mus musculus. The data set can be described thus: Antidiabetic activity against C57BL/Ks db/db mouse assessed as redcution in fasting blood glucose level at 1 umol/kg, sc administered once a week and measured on day 22 by glucometer analysis (reference value: 27.4 +/- 1.8 […]). The class given is functional. As to conditions: dose 1 µmol/kg, time 22 day.
The nature of data set [10]: Toxicity in C57BL/Ks db/db mouse assessed as signs of discomfort at 1 uM/kg, sc administered for 2 weeks. The class given is organism-based. The note with it: in vivo, 336 h.
The nature of data set [11]: Stability of compound assessed as Pepsin (unknown origin) mediated compound degradation by measuring fold change of half-life by HPLC analysis relative to BimBH312-mer peptide. Format: ADME. The note with it: human.
Data set [12] concerns Mus musculus. Kind of data set: Antidiabetic activity against C57BL/Ks db/db mouse assessed as redcution in fasting blood glucose level at 1 umol/kg, sc administered once a week and measured on day 28 by glucometer analysis (reference value: 32.4 +/- 1.1 […]). As to conditions: dose 1 µmol/kg, time 28 day. Format: functional.
In data set [13] the target is T3, Carboxypeptidase A1 (Homo sapiens, UniProt P15085).
T3 sequence (P15085 whole entry): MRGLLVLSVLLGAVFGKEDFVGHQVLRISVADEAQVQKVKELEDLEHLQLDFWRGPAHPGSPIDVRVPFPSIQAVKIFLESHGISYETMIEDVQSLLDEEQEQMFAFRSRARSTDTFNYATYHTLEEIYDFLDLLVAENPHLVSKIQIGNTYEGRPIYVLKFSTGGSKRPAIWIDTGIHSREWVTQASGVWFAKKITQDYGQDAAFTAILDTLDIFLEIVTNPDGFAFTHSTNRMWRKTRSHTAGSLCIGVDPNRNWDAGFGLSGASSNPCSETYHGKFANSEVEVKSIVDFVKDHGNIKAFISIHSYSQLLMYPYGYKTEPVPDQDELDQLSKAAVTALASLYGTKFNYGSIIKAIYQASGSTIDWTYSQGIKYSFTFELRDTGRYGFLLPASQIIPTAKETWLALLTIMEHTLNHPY
The data set can be described thus: Stability of compound assessed as carboxypeptidase A (unknown origin) mediated compound degradation by measuring fold change of half-life by RP-HPLC analysis relative to BimBH312-mer peptide. Format: ADME.

Data set [14] has as its system Proteinase K. Kind of data set: Stability of compound assessed as Proteinase K (unknown origin) mediated compound degradation by measuring half-life by HPLC analysis. The class given is ADME.
Data set [15] deals with chymotrypsin (Homo sapiens, UniProt P17538+P40313+Q6GPI1+Q99895). Kind of data set: Stability of compound assessed as chymotrypsin (unknown origin) mediated compound degradation by measuring half-life by RP-HPLC analysis. The class given is ADME, protein assay.
A short description of data set [16]: Toxicity in C57BL/Ks db/db mouse assessed as signs of distress at 1 uM/kg, sc administered for 2 weeks. Format: organism-based. As to conditions: in vivo, 336 h.
Data set [17] addresses T4, Tyrosine-protein phosphatase non-receptor type 2 (Homo sapiens, UniProt P17706).
T4 sequence (P17706 whole entry): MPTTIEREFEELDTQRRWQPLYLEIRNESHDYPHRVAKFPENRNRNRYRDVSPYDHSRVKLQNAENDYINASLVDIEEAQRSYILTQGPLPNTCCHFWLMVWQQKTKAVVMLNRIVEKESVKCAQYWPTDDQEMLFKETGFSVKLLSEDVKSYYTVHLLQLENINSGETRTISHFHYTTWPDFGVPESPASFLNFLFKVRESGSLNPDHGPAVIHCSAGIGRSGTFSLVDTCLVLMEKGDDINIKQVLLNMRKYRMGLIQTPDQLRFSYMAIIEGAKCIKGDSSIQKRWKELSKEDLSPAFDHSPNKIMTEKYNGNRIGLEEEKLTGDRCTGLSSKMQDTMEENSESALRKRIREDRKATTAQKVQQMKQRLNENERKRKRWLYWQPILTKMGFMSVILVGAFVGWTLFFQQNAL
The data set can be described thus: Inhibition of recombinant human TC-PTP (1 to 314 residues) expressed in baculovirus infected insect cells using pNPP as substrate assessed as substrate hydrolysis. Set-up: species or system Insect cell.

The test system of data set [18] is Mus musculus. The data set can be described thus: Antidiabetic activity against C57BL/Ks db/db mouse assessed as reduction in fasting blood glucose level at 1 uM/kg, sc administered once a week for 2 weeks by glucometer analysis. The class given is functional, organism-based.
Data set [19] is described as follows: Stability of compound assessed as Proteinase K (unknown origin) mediated compound degradation by measuring fold change of half-life by HPLC analysis relative to BimBH312-mer peptide. The class given is ADME.

SMILES strings stand for the structures. Calls of active or inactive are those of the source. Square brackets hold non-standard residues; d marks the D form. Peptide text beside a SMILES is read from it. * marks the point of attachment. ξ: configuration not given here. C18 diacid = O=C(O)CCCCCCCCCCCCCCCCC(=O)*; Myristoyl = CCCCCCCCCCCCCC(=O)*; ξR = N=C(N)NCCCC(N)C(=O)O

Usually IC50 stands for the concentration needed to halve the response being measured. Broadly, the half-life is the time needed for the level to fall by half in the phase considered. Usually inhibition stands for the drop in the measured response relative to a control, in per cent. With `CCCCCCCCCCCCCC(=O)N[C@H](C(=O)N[C@@H](C)C(=O)N[C@@H](CCC(N)=O)C(=O)N[C@@H](CCC(=O)O)C(=O)N[C@@H](CC(C)C)C(=O)N[C@@H](CCCNC(=N)N)C(=O)NC(CCCNC(=N)N)C(=O)N[C@H](C(=O)NCC(=O)N[C@@H](CC(=O)O)C(=O)N[C@@H](CCC(=O)O)C(=O)N[C@@H](Cc1ccccc1)C(=O)O)[C@@H](C)CC)[C@@H](C)CC` (stereo partly drawn) (Myristoyl-IAQELR[ξR]IGDEF-OH), the IC50 was 263 nM in data set [1] and over 50000 nM in data set [17]. Besides, the results for the half-life in data set [2], in data set [14] and in [15] were 39 min, 17.4 min and 178 min, respectively. Further, the “Fasting blood glucose level” value in data set [3] worked out at 20.9 mmol/L; in data set [6], 14.2 mmol/L; in data set [7], 12.9 mmol/L; in [9], 11.2 mmol/L; in data set [12] it was 15.6 mmol/L. Also, the inhibition in data set [4] was over 50%. Moreover, the result in [5] and in data set [18] was Active. The “fold change (FC)” value in data set [8] came to 68.8; in data set [11], 29.5; in data set [13] it was 31.9; in data set [19], 5.8. Also, the Activity result in data set [10] and in data set [16] was “Non-Toxic” throughout.
In the case of `CC[C@H](C)[C@H](NC(=O)CCCCCCCCCCCCCCCCC(=O)O)C(=O)N[C@@H](C)C(=O)N[C@@H](CCC(N)=O)C(=O)N[C@@H](CCC(=O)O)C(=O)N[C@@H](CC(C)C)C(=O)N[C@@H](CCCNC(=N)N)C(=O)NC(CCCNC(=N)N)C(=O)N[C@H](C(=O)NCC(=O)N[C@@H](CC(=O)O)C(=O)N[C@@H](CCC(=O)O)C(=O)N[C@@H](Cc1ccccc1)C(=O)O)[C@@H](C)CC` (stereo partly drawn) ({C18 diacid}-IAQELR[ξR]IGDEF-OH), the IC50 was 385 nM in data set [1] and over 50000 nM in [17]. The half-life in [2] was 406 min; in data set [14], 7.8 min; in data set [15], 12 min. Further, the “Fasting blood glucose level” value in [3] turned out to be 19.8 mmol/L; in data set [6], 14.3 mmol/L; in [7] it was 22.9 mmol/L; in [9], 9.9 mmol/L; in data set [12] it was 18.4 mmol/L. For the same compound, the inhibition in data set [4] is over 50%. For the same compound, the result in [5] and in [18] was Active. The “fold change (FC)” value in data set [8] came out at 4.7; in data set [11], 307.7; in data set [13], 140.9; in [19], 2.6. In addition, the Activity entry in [10] and in [16] was “Non-Toxic” each time.
